In one assay the target is UCHL1 (Homo sapiens (Human), UniProt P09936). As to the kind of experiment: UCHL1 biochemical IC50 assay (fluorescence polarisation). As for the experimental part: The UCHL1 construct was PCR amplified and cloned into a pFLAG-CMV-6a vector (Sigma-Aldrich) with an N-terminal FLAG tag. HEK293T cells were transfected with FLAG-UCHL1 using TransIT-LT1 transfection reagent (Mirus) according to the manufacturer's instructions. Cells were harvested 40 hours after transfection. […] The resin was washed two times with low salt buffer and one time with high salt buffer (20 mM Tris, pH 7.5, 500 mM NaCl, 0.5 mM EDTA, 5 mM beta-mercaptoethanol, protease inhibitors (complete mini, Roche) and phosphatase inhibitors (PhosSTOP mini, Roche). To elute the bound UCHL1, elution buffer (10 mM Tris, pH 7.5, 150 mM NaCl, 0.5 mM EDTA, 10% glycerol, 0.5% NP40, 5 mM beta-mercaptoethanol, 0.15 mg/ml 3× FLAG peptide (Sigma-Aldrich)) was added to the resin and incubated at 4° C. for 2.5 hours rotating. The resin was centrifuged at 4000 rpm for 30 seconds, and the supernatant containing purified FLAG-UCHL1 was removed and stored at −80° C.
UCHL1 was diluted in reaction buffer (20 mM Tris, pH 7.5, 100 mM NaCl, 0.05% Tween 20, 0.5 mg/ml BSA, 5 mM beta-mercaptoethanol) to the equivalent of 0, 0.01, 0.05, 0.1, 0.5, and 1 μl/well. Buffer was optimised for optimal temperature, pH, reducing agent, salts, time of incubation, and detergent. Reactions were initiated by the addition of 50 nM of TAMRA labelled peptide linked to ubiquitin via an iso-peptide bond as fluorescence polarisation substrate. Reactions were incubated at room temperature and read every 2 min for 120 min. Readings were performed on a Pherastar Plus (BMG Labtech). λ Excitation 540 nm; λ Emission 590 nm.
A typical 8-point dilution series to be 30, 10, 3, 1, 0.3, 0.1, 0.03, 0.01 μM final. […] Either 1 μl of 50% DMSO or diluted compound was added to the plate. UCHL1 was diluted in reaction buffer (20 mM Tris, pH 7.5, 100 mM NaCl, 0.05% Tween 20, 0.5 mg/ml BSA, 5 mM beta-mercaptoethanol) to the equivalent of 0.05 μl/well and 10 μl of diluted UCHL1 was added to the compound. Enzyme and compound were incubated for 30 min at room temp. Reactions were initiated by the addition of 50 nM of TAMRA labelled peptide linked to ubiquitin via an iso-peptide bond as fluorescence polarisation substrate. Reactions were read immediately after addition of substrate and following a 2-hour incubation at room temperature. Readings were performed on a Pherastar Plus (BMG Labtech). λ Excitation 540 nm; λ Emission 590 nm.

For a further assay, the target named is USP30 (Homo sapiens (Human), UniProt Q70CQ3). As to the kind of experiment: USP30 biochemical IC50 assay (fluorescence polarisation). As for the experimental part:
A typical 8-point dilution series would be 100, 30, 10, 3, 1, 0.3, 0.1, 0.03 μM final. […] Either 1 μl of 50% DMSO or diluted compound was added to the plate. USP30 was diluted in reaction buffer (40 mM Tris, pH 7.5, 0.005% Tween 20, 0.5 mg/ml BSA, 5 mM beta-mercaptoethanol) to the equivalent of 0.05 μl/well and 10 μl of diluted USP30 was added to the compound. Enzyme and compound were incubated for 30 min at room temp. Reactions were initiated by the addition of 50 nM of TAMRA labelled peptide linked to ubiquitin via an iso-peptide bond as fluorescence polarisation substrate. Reactions were read immediately after addition of substrate and following a 2-hour incubation at room temperature. Readings were performed on a Pherastar Plus (BMG Labtech). λ Excitation 540 nm; λ Emission 590 nm.
(Polarisation of emitted light reports the rotation of a fluorescent probe.)

The mark [1] stands for this setting: FLAG-UCHL1, 30 min preincubation at room temp, TAMRA-peptide-ubiquitin substrate 50 nM, read after 2-hour incubation, read-out: IC50 range.
The mark [2] stands for this setting: USP30 CD (57-517), 30 min preincubation at room temp, TAMRA-peptide-ubiquitin substrate 50 nM, read after 2-hour incubation, read-out: IC50 range.

Results on three compounds are retold here after patent US11414402B2, “Sulfonamide-substituted cyanopyrrolidines with activity as DUB inhibitors” (MISSION THERAPEUTICS LIMITED, priority 2017, dated 2022).

Broadly, the IC50 is the concentration at which inhibition is half-maximal.

Where two headings read alike, the source gives them in different places.

Chain of UCHL1 (P09936 whole entry): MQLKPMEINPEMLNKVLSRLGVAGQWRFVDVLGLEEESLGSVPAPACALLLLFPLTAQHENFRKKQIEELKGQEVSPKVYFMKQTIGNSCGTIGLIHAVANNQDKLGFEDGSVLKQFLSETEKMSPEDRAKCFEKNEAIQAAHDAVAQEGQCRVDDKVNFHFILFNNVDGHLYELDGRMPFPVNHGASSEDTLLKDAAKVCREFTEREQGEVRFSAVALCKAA
Chain of USP30 (Q70CQ3 57-517): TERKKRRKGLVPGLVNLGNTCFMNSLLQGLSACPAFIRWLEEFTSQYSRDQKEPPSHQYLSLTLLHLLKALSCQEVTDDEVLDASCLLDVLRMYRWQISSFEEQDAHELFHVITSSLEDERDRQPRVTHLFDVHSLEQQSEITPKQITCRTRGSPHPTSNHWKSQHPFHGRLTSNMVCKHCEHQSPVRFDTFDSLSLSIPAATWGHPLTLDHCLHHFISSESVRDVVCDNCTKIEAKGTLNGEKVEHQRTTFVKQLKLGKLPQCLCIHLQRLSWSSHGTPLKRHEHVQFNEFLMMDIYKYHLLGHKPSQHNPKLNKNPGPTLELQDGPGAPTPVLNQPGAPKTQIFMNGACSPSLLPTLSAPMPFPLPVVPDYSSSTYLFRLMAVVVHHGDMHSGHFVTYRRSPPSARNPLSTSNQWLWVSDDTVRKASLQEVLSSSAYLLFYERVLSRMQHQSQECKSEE

`Cn1nccc1C(=O)Nc1ccc(S(=O)(=O)NC2CCN(C#N)C2)cn1` (stereo not drawn) [Example 24, N-(5-(N-(1-cyanopyrrolidin-3-yl)sulfamoyl)pyridin-2-yl)-1-methyl-1H-pyrazole-5-carboxamide]: the IC50 at UCHL1 (setting [1]) fell in the range of 10000 to 100000 nM; on USP30 (setting [2]), 100 to 1000 nM.
For `CN(C1CCN(C#N)C1)S(=O)(=O)c1ccc(Oc2ccc(C(F)(F)F)cn2)cc1` (stereo not drawn) [Example 25, N-(1-cyanopyrrolidin-3-yl)-N-methyl-4-((5-(trifluoromethyl)pyridin-2-yl)oxy)benzenesulfonamide], in that order: 1000 to 10000 nM and 100 to 1000 nM.
On to `N#CN1CCC(S(=O)(=O)Nc2ccc(-c3ccccc3)cc2)C1` (stereo not drawn) [Example 26, N-([1,1′-biphenyl]-4-yl)-1-cyanopyrrolidine-3-sulfonamide], for which the values for the 50% inhibitory concentration (IC50) against UCHL1 and against USP30 were 10000 to 100000 nM and 100 to 1000 nM, respectively.
